These are literature values, as cited in US20040077591A1, “Histone deacetylase inhibitors for the treatment of multiple sclerosis, amyotrophic lateral sclerosis and Alzheimer's Disease” (The Brigham and Women's Hospital, Inc., priority 2002, published 2004).

SMILES strings stand for the structures.

One data set concerns SMA lymphoid cell lines. The settings on record: cited from earlier work.
Another data set relates to SMA-like mice. Conditions: cited from earlier work.

Turning to `CCCC(=O)[O-].[Na+]` [sodium butyrate], the “amount of exon 7-containing survival motor neuron (SMN) protein” value with SMA lymphoid cell lines was “effective at increasing”. Moreover, in the data set on SMA-like mice (SMA-like mice), the “expression of SMN protein in spinal cord motor neurons” value was “increased expression of SMN protein” and the symptoms entry is “improved symptoms”. For the same compound, the “birth rate of severe types of SMA-like mice” value in the data set on SMA-like mice (heterozygous knock-out transgenic SMA-like mice bred) was “decreased the birth rate”.
